Numbers after ± are expanded uncertainties.
Details: Liquid, Vibrating tube method

CCCC[n+]1ccn(C)c1.O=S(=O)([N-]S(=O)(=O)C(F)(F)F)C(F)(F)F
Details | mass density [kg/m3]
293.15 K, 100 kPa | 1441.8 ± 12
293.15 K, 101.33 kPa | 1441.34 ± 12
293.15 K, 250 kPa | 1441.9 ± 12
293.15 K, 500 kPa | 1442.1 ± 12
293.15 K, 1000 kPa | 1442.4 ± 12
293.15 K, 2000 kPa | 1443.2 ± 12
293.15 K, 4990 kPa | 1445.4 ± 12
293.15 K, 10000 kPa | 1449 ± 12
293.15 K, 15000 kPa | 1452.5 ± 12
293.15 K, 20000 kPa | 1456 ± 12
293.15 K, 25010 kPa | 1459.3 ± 12
293.15 K, 30000 kPa | 1462.6 ± 12
293.15 K, 35000 kPa | 1465.8 ± 12
293.15 K, 40000 kPa | 1469.1 ± 12
293.15 K, 45000 kPa | 1472.2 ± 12
293.15 K, 50000 kPa | 1475.3 ± 12
293.15 K, 55000 kPa | 1478.3 ± 12
293.15 K, 59970 kPa | 1481.3 ± 12
294.15 K, 101.33 kPa | 1440.37 ± 12
295.15 K, 101.33 kPa | 1439.4 ± 12
296.15 K, 101.33 kPa | 1438.43 ± 12
297.15 K, 101.33 kPa | 1437.46 ± 12
298.15 K, 101.33 kPa | 1436.5 ± 12
299.15 K, 101.33 kPa | 1435.53 ± 12
300.15 K, 101.33 kPa | 1434.57 ± 11
301.15 K, 101.33 kPa | 1433.61 ± 11
302.15 K, 101.33 kPa | 1432.64 ± 11
303.15 K, 100 kPa | 1432.3 ± 12
303.15 K, 101.33 kPa | 1431.69 ± 11
303.15 K, 250 kPa | 1432.4 ± 12
303.15 K, 500 kPa | 1432.6 ± 12
303.15 K, 1000 kPa | 1432.9 ± 12
303.15 K, 2000 kPa | 1433.7 ± 12
303.15 K, 5000 kPa | 1436 ± 12
303.15 K, 10000 kPa | 1439.7 ± 12
303.15 K, 15000 kPa | 1443.3 ± 12
303.15 K, 20000 kPa | 1446.8 ± 12
303.15 K, 25000 kPa | 1450.2 ± 12
303.15 K, 30000 kPa | 1453.6 ± 12
303.15 K, 34990 kPa | 1456.9 ± 12
303.15 K, 40000 kPa | 1460.2 ± 12
303.15 K, 45010 kPa | 1463.4 ± 12
303.15 K, 50000 kPa | 1466.5 ± 12
303.15 K, 54990 kPa | 1469.6 ± 12
303.15 K, 60010 kPa | 1472.7 ± 12
304.15 K, 101.33 kPa | 1430.73 ± 11
305.15 K, 101.33 kPa | 1429.77 ± 11
306.15 K, 101.33 kPa | 1428.82 ± 11
307.15 K, 101.33 kPa | 1427.86 ± 11
308.15 K, 101.33 kPa | 1426.9 ± 11
309.15 K, 101.33 kPa | 1425.95 ± 11
310.15 K, 101.33 kPa | 1425 ± 11
311.15 K, 101.33 kPa | 1424.05 ± 11
312.15 K, 101.33 kPa | 1423.1 ± 11
313.15 K, 100 kPa | 1422.8 ± 11
313.15 K, 101.33 kPa | 1422.15 ± 11
313.15 K, 250 kPa | 1422.9 ± 11
313.15 K, 500 kPa | 1423.1 ± 11
313.15 K, 1000 kPa | 1423.5 ± 11
313.15 K, 2000 kPa | 1424.3 ± 11
313.15 K, 5000 kPa | 1426.6 ± 11
313.15 K, 10000 kPa | 1430.4 ± 12
313.15 K, 15010 kPa | 1434.1 ± 12
313.15 K, 20010 kPa | 1437.7 ± 12
313.15 K, 25000 kPa | 1441.2 ± 12
313.15 K, 30000 kPa | 1444.7 ± 12
313.15 K, 34990 kPa | 1448 ± 12
313.15 K, 40000 kPa | 1451.4 ± 12
313.15 K, 45010 kPa | 1454.6 ± 12
313.15 K, 50010 kPa | 1457.9 ± 12
313.15 K, 55000 kPa | 1461 ± 12
313.15 K, 60000 kPa | 1464.1 ± 12
314.15 K, 101.33 kPa | 1421.2 ± 11
315.15 K, 101.33 kPa | 1420.25 ± 11
316.15 K, 101.33 kPa | 1419.3 ± 11
317.15 K, 101.33 kPa | 1418.36 ± 11
318.15 K, 101.33 kPa | 1417.41 ± 11
319.15 K, 101.33 kPa | 1416.47 ± 11
320.15 K, 101.33 kPa | 1415.53 ± 11
321.15 K, 101.33 kPa | 1414.58 ± 11
322.15 K, 101.33 kPa | 1413.64 ± 11
323.15 K, 100 kPa | 1413.5 ± 11
323.15 K, 101.33 kPa | 1412.7 ± 11
323.15 K, 250 kPa | 1413.6 ± 11
323.15 K, 500 kPa | 1413.8 ± 11
323.15 K, 1010 kPa | 1414.2 ± 11
323.15 K, 2000 kPa | 1415 ± 11
323.15 K, 4990 kPa | 1417.4 ± 11
323.15 K, 10010 kPa | 1421.3 ± 11
323.15 K, 14990 kPa | 1425.1 ± 11
323.15 K, 20010 kPa | 1428.8 ± 12
323.15 K, 24990 kPa | 1432.4 ± 12
323.15 K, 30010 kPa | 1435.9 ± 12
323.15 K, 35010 kPa | 1439.4 ± 12
323.15 K, 40000 kPa | 1442.8 ± 12
323.15 K, 45000 kPa | 1446.1 ± 12
323.15 K, 50000 kPa | 1449.4 ± 12
323.15 K, 55000 kPa | 1452.6 ± 12
323.15 K, 60000 kPa | 1455.8 ± 12
324.15 K, 101.33 kPa | 1411.76 ± 11
325.15 K, 101.33 kPa | 1410.82 ± 11
326.15 K, 101.33 kPa | 1409.88 ± 11
327.15 K, 101.33 kPa | 1408.94 ± 11
328.15 K, 101.33 kPa | 1408 ± 11
329.15 K, 101.33 kPa | 1407.06 ± 11
330.15 K, 101.33 kPa | 1406.12 ± 11
331.15 K, 101.33 kPa | 1405.19 ± 11
332.15 K, 101.33 kPa | 1404.25 ± 11
333.15 K, 100 kPa | 1404.2 ± 11
333.15 K, 101.33 kPa | 1403.32 ± 11
333.15 K, 250 kPa | 1404.3 ± 11
333.15 K, 500 kPa | 1404.5 ± 11
333.15 K, 1010 kPa | 1404.9 ± 11
333.15 K, 2000 kPa | 1405.8 ± 11
333.15 K, 4990 kPa | 1408.2 ± 11
333.15 K, 10000 kPa | 1412.3 ± 11
333.15 K, 14990 kPa | 1416.2 ± 11
333.15 K, 20010 kPa | 1420 ± 11
333.15 K, 25000 kPa | 1423.6 ± 11
333.15 K, 30010 kPa | 1427.3 ± 12
333.15 K, 34990 kPa | 1430.8 ± 12
333.15 K, 40010 kPa | 1434.3 ± 12
333.15 K, 45000 kPa | 1437.6 ± 12
333.15 K, 50000 kPa | 1441 ± 12
333.15 K, 54990 kPa | 1444.3 ± 12
333.15 K, 60000 kPa | 1447.5 ± 12
334.15 K, 101.33 kPa | 1402.39 ± 11
335.15 K, 101.33 kPa | 1401.45 ± 11
336.15 K, 101.33 kPa | 1400.52 ± 11
337.15 K, 101.33 kPa | 1399.59 ± 11
338.15 K, 101.33 kPa | 1398.66 ± 11
339.15 K, 101.33 kPa | 1397.73 ± 11
340.15 K, 101.33 kPa | 1396.8 ± 11
341.15 K, 101.33 kPa | 1395.87 ± 11
342.15 K, 101.33 kPa | 1394.94 ± 11
343.15 K, 100 kPa | 1395 ± 11
343.15 K, 101.33 kPa | 1394.01 ± 11
343.15 K, 250 kPa | 1395.1 ± 11
343.15 K, 500 kPa | 1395.3 ± 11
343.15 K, 1000 kPa | 1395.7 ± 11
343.15 K, 2000 kPa | 1396.6 ± 11
343.15 K, 4990 kPa | 1399.1 ± 11
343.15 K, 10010 kPa | 1403.3 ± 11
343.15 K, 14910 kPa | 1407.2 ± 11
343.15 K, 20000 kPa | 1411.2 ± 11
343.15 K, 24990 kPa | 1414.9 ± 11
343.15 K, 30010 kPa | 1418.7 ± 11
343.15 K, 34990 kPa | 1422.3 ± 11
343.15 K, 39990 kPa | 1425.8 ± 12
343.15 K, 45000 kPa | 1429.3 ± 12
343.15 K, 50000 kPa | 1432.7 ± 12
343.15 K, 55000 kPa | 1436.1 ± 12
343.15 K, 60000 kPa | 1439.4 ± 12
344.15 K, 101.33 kPa | 1393.09 ± 11

Reference: the NIST ThermoML archive (doi:10.1016/j.fluid.2010.03.010)
